Data: patent US5677291A, “Method of lowering serum cholesterol levels with 2,6-di-alkyl-4-silyl-phenols” (Hoechst Marion Roussel, Inc., priority 1996, dated 1997)

Tests used:
Type in all cases: in vivo, New Zealand White rabbit
[1] = system: 1% Cholesterol-Fed New Zealand White Rabbits; experiment: Reduction of cholesterol levels of 1% cholesterol-fed rabbits by concurrent administration of 0.5% Compound A (Example 18); conditions: 1% cholesterol/0.5% drug diet; for Cholesterol: plasma or serum, n = 6
Experimental: New Zealand Whim (NZW) rabbits (female, aged 3-4 months, weighing less than 3 kg) six in each group, were fed a control diet of 1% cholesterol (100 g rabbit chow daily containing 1 g cholesterol) or a diet of 1% cholesterol/0.5% drag (100 g rabbit chow daily containing 1 g cholesterol and 0.5 g Compound A). After 56 days, the rabbits were sacrificed by intravenous injection of pentobarbital. Plasma or serum was collected and cholesterol levels were determined using the enzymatic method of Mao, et at., Clin. Chem. (1983) 29:1890-1897.

[2] = system: 0.2% Cholesterol-Fed New Zealand White Rabbits; experiment: Reduction of cholesterol levels of 0.2% cholesterol-fed rabbits by concurrent administration of 0.4% Compound A (Example 19); conditions: for Cholesterol: plasma or serum, n = 6
Experimental: NZW rabbits (female, aged 3-4 months, weighing less than 3 Kg), six in each group, were fed a control diet of 0.2% cholesterol (100 g rabbit chow daily containing 0.2 g cholesterol) or a diet of 0.2% cholesterol/0.4% drag (100 g rabbit chow daily containing 0.2 g cholesterol and 0.4 g Compound A). After 56 days, the rabbits were sacrificed by intravenous injection of pentobarbital. Plasma or serum was collected and cholesterol levels were determined using the enzymatic method of Mao, et at., Clin. Chem. (1983) 29: 1890-1897.

[3] = system: 0.2% Cholesterol-Fed New Zealand White Rabbits; experiment: Serum total, LDL and HDL cholesterol and triglycerides in 0.2% cholesterol-fed rabbits, concurrent 0.4% drug (Example 20); design: triglycerides: reference not given here; conditions: 0.2% cholesterol/0.4% drug diet; for cholesterol (total) % Control / HDL cholesterol % Control / LDL cholesterol % Control: % of control; for HDL cholesterol % Control / LDL cholesterol % Control: serum, gel filtration HPLC
Excerpt: (§1) NZW rabbits (female, aged 3-4 months, weighing less than 3 Kg), six in each group, were fed a control diet of 0.2% cholesterol (100 g rabbit chow daily containing 0.2 g cholesterol) or a diet of 0.2% cholesterol/0.4% drug (100 g rabbit chow daily containing 0.2 g cholesterol and 0.4 g of drag). For Compound A, the rabbits were sacrificed by intravenous injection of pentobarbital after 56 days. For Compound G, K, E and H, the rabbits were sacrificed by intravenous injection of pentobarbital after 7 days. Plasma or serum was collected and cholesterol levels were determined using the enzymatic method of Mao, et at., Clin. Chem. (1983) 29:1890-1897. Liver weight and body weights were determined. Serum HDL and LDL cholesterol levels were determined using gel filtration HPLC modified from Kieft, K. A., et at., J. Lipid Res., 32:859-861 (1991), using Roche enzymatic cholesterol reagents. Triglyceride levels were determined by Cobas Automated Analyzer using Roche enzymatic reagents.

[4] = system: 0.2% Cholesterol-Fed New Zealand White Rabbits; experiment: Liver weight / body weight ratio in 0.2% cholesterol-fed rabbits, concurrent 0.4% drug (Example 20); conditions: 0.2% cholesterol/0.4% drug diet
Excerpt: as §1

[5] = system: Normolipidemic New Zealand Rabbits; experiment: Reduction in cholesterol levels of normolipidemic rabbits by concurrent administration of 0.5% Compound A (Example 21); conditions: normal diet with 0.5% drug; for Cholesterol: serum, n = 4
Experimental: New Zealand White rabbits (female, aged 3-4 months, weighing less than 3 kg), four in each group, were fed a normal diet (100 g rabbit chow daily) or a diet of 0.5% drug (100 g rabbit chow daily containing 0.5 g Compound A). Serum was collected and cholesterol levels were determined according to the method of Mao, et at., Clin. Chem. (1983) 29:1890-1897.

In the case of `CC(C)(C)c1cc(SC[Si](C)(C)c2ccccc2)cc(C(C)(C)C)c1O` [Compound A, 2,6-Di-t-butyl-4[(dimethylphenylsilyl)methylthio]phenol], the Cholesterol ([1]; day 0) was 59 ± 8 mg/dL, the Cholesterol ([1]; day 14) was 684 ± 99 mg/dL and the Cholesterol ([1]; day 28) was 954 ± 126 mg/dL. The Cholesterol ([1]; day 42) was 1118 ± 164 mg/dL, the Cholesterol ([1]; day 56) was 1035 ± 152 mg/dL and the “reduction of serum cholesterol” value ([1]; day 56, vs control) was 57%. For the same compound, the reduction of cholesterol ([2]; 56 days, 0.2% cholesterol/0.4% drug diet) was 64%, the “cholesterol lowering (in words)” value ([2]; administration for 56 days, 0.2% cholesterol-fed rabbits) was “significant cholesterol lowering” and the Cholesterol ([2]; day 0, 0.2% cholesterol/0.4% drug diet) was 66 ± 8 mg/dL. For the same compound, the Cholesterol ([2]; day 7, 0.2% cholesterol/0.4% drug diet) was 154 ± 17 mg/dL, the Cholesterol ([2]; day 14, 0.2% cholesterol/0.4% drug diet) was 223 ± 32 mg/dL and the Cholesterol ([2]; day 28, 0.2% cholesterol/0.4% drug diet) was 291 ± 59 mg/dL. For the same compound, the Cholesterol ([2]; day 42, 0.2% cholesterol/0.4% drug diet) was 357 ± 89 mg/dL, the Cholesterol ([2]; day 56, 0.2% cholesterol/0.4% drug diet) was 337 ± 100 mg/dL and the triglycerides ([3]; 56 days) was 366%. The “cholesterol (total) % Control” value ([3]; 56 days) was 52%, the “HDL cholesterol % Control” value ([3]; 56 days) was 75% and the “LDL cholesterol % Control” value ([3]; 56 days) was 42%. For the same compound, the “liver wt/body wt ratio” value ([4]; 56 days) was 120%, the Cholesterol ([5]; day 0) was 43.5 ± 4 mg/dL and the Cholesterol ([5]; day 8) was 69.7 ± 6 mg/dL. For the same compound, the Cholesterol ([5]; day 14) was 54.8 ± 8 mg/dL, the “level of cholesterol significantly reduced by” value ([5]; day 23, compared to control rabbits) was “about 29%” and the Cholesterol ([5]; day 23) was 58.3 ± 6 mg/dL.
In the case of `CC(C)(C)c1cc(OC[Si](C)(C)c2ccccc2)cc(C(C)(C)C)c1O` [Compound G], the triglycerides ([3]; 7 days) was 104%, the “cholesterol (total) % Control” value ([3]; 7 days) was 72% and the “HDL cholesterol % Control” value ([3]; 7 days) was 81%. For the same compound, the “LDL cholesterol % Control” value ([3]; 7 days) was 69% and the “liver wt/body wt ratio” value ([4]; 7 days) was 104%.
For `COc1ccc([Si](C)(C)COc2cc(C(C)(C)C)c(O)c(C(C)(C)C)c2)cc1` [Compound H, 2,6-Di-t-butyl-4[(dimethyl-4-methoxyphenylsilyl)methyloxy]phenol], the triglycerides ([3]; 7 days) was 73%, the “cholesterol (total) % Control” value ([3]; 7 days) was 54% and the “HDL cholesterol % Control” value ([3]; 7 days) was 123%. The “LDL cholesterol % Control” value ([3]; 7 days) was 66% and the “liver wt/body wt ratio” value ([4]; 7 days) was 110%.
With `COc1ccccc1[Si](C)(C)COc1cc(C(C)(C)C)c(O)c(C(C)(C)C)c1` [Compound K, 2,6-Di-t-butyl-4-[(dimethy 1-2-methoxyphenylsilyl)methyloxy]phenol] the triglycerides ([3]; 7 days) was 131%, the “cholesterol (total) % Control” value ([3]; 7 days) was 77% and the “HDL cholesterol % Control” value ([3]; 7 days) was 217%. For the same compound, the “LDL cholesterol % Control” value ([3]; 7 days) was 61% and the “liver wt/body wt ratio” value ([4]; 7 days) was 90%.
`CC(C)(C)c1cc(OC[Si](C)(C)c2ccc(Cl)cc2)cc(C(C)(C)C)c1O` [E, 2,6 Di-t-butyl-4[(4-chlorophenyldimethylsilyl)methyloxy]phenol] was tested, and the triglycerides ([3]; 7 days) was 82%, the “cholesterol (total) % Control” value ([3]; 7 days) was 87% and the “HDL cholesterol % Control” value ([3]; 7 days) was 109%. For the same compound, the “LDL cholesterol % Control” value ([3]; 7 days) was 89% and the “liver wt/body wt ratio” value ([4]; 7 days) was 93%.
